Measurements: patent publication US20250381185A1, “CDK4/PARP1 DUAL-TARGET INHIBITOR AND USE THEREOF” (YANBIAN UNIVERSITY, priority 2024, published 2025)

Columns and labels:
CDK4 = CDK4 (Homo sapiens, UniProt P11802); experiment: IC50 of dual-target inhibitors against CDK4; format: biochemical
Experimental: The effectiveness of the present application was verified through the following tests: • (1) IC50 values of the dual-target inhibitors (Examples 1-11) against CDK4 were determined.

PARP1 = PARP1 (Homo sapiens, UniProt P09874); experiment: IC50 of dual-target inhibitors against PARP1; format: biochemical
Chain of PARP1 (P09874 whole entry): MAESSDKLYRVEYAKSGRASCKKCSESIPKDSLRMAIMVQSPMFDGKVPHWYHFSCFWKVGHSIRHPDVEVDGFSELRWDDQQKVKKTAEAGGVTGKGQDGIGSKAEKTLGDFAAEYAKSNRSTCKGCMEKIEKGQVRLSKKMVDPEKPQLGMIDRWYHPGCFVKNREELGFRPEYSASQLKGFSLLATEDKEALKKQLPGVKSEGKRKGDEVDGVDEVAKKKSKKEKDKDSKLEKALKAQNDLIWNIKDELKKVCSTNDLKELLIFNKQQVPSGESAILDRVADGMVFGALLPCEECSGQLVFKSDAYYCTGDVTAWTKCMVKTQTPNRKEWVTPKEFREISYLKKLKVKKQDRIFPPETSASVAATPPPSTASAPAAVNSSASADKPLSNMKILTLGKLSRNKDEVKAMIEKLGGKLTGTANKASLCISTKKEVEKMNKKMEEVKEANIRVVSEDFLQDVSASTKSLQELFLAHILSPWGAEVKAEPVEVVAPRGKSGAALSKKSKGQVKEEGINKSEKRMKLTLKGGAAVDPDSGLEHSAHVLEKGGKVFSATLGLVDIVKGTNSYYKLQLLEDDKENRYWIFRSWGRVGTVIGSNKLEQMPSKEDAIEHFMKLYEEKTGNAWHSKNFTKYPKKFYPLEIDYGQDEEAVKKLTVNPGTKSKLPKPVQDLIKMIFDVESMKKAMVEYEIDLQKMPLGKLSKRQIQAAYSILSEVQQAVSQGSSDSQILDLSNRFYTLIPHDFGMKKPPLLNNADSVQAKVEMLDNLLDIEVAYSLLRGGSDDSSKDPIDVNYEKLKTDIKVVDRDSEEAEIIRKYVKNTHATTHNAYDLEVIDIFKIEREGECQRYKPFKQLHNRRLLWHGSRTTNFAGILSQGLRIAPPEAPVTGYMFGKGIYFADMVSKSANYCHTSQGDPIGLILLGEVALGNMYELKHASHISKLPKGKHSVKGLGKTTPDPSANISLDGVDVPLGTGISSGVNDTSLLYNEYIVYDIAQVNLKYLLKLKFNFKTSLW

Chain of CDK4 (P11802 whole entry): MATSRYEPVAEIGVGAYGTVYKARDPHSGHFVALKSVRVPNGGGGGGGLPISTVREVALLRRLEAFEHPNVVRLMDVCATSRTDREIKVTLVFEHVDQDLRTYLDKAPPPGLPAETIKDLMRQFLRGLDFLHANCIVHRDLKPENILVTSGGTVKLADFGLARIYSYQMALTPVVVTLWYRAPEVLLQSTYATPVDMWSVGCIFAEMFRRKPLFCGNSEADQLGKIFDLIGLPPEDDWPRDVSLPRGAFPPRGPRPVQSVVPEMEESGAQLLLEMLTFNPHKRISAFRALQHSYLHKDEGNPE
Chain of CDK4 (P24385 whole entry partner): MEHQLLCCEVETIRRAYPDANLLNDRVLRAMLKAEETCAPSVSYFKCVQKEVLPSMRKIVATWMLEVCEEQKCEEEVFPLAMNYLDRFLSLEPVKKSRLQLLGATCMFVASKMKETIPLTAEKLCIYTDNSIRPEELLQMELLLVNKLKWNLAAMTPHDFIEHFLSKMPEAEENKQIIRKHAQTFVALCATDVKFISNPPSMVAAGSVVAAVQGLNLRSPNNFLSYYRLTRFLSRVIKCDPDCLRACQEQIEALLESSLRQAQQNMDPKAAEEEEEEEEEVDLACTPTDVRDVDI

IC50 (CDK4) [µM]	IC50 (PARP1) [µM]	Compound
> 0.5	0.01 to 0.1	CN(C)C(=O)c1cc2cnc(NCCOC(=O)c3cc(Cc4n[nH]c(=O)c5ccccc45)ccc3F)nc2n1C1CCCC1 [Compound F1]
> 0.5	0.01 to 0.1	CN(C)C(=O)c1cc2cnc(NCCNC(=O)[C@H](Cc3c[nH]c4ccccc34)NC(=O)c3cc(Cc4n[nH]c(=O)c5ccccc45)ccc3F)nc2n1C1CCCC1 [Compound E3]
0.1 to 0.5	0.01 to 0.1	CC(C)[C@H](NC(=O)c1cc(Cc2n[nH]c(=O)c3ccccc23)ccc1F)C(=O)NCCNc1ncc2cc(C(=O)N(C)C)n(C3CCCC3)c2n1 [Compound E2]
> 0.5	0.01 to 0.1	CN(C)C(=O)c1cc2nc(NCCNC(=O)[C@H](Cc3ccccc3)NC(=O)c3cc(Cc4n[nH]c(=O)c5ccccc45)ccc3F)ncc2n1C1CCCC1 [Compound E4]
> 0.5	0.01 to 0.1	CC(C)[C@H](NC(=O)c1cc(Cc2n[nH]c(=O)c3ccccc23)ccc1F)C(=O)NNc1ncc2c(cc(C(=O)N(C)C)n2C2CCCC2)n1 [Compound E8]
> 0.5	0.01 to 0.1	CN(C)C(=O)c1cc2cnc(NCCCOC(=O)c3cc(Cc4n[nH]c(=O)c5ccccc45)ccc3F)nc2n1C1CCCC1 [Compound F2]
0.1 to 0.5	< 0.01	CN(C)C(=O)c1cc2cnc(NCCNC(=O)CNC(=O)c3cc(Cc4n[nH]c(=O)c5ccccc45)ccc3F)nc2n1C1CCCC1 [Compound E1]

Second part, the compound before the results:

Compound	IC50 (CDK4) [µM]	IC50 (PARP1) [µM]
Cc1nc2c(F)cc(-c3nc(Nc4ccc(CC(=O)Nc5cccc(Cc6n[nH]c(=O)c7ccccc67)c5)cc4)ncc3F)cc2n1C(C)C [Compound A3]	0.01 to 0.1	0.01 to 0.1
Cc1nc2c(F)cc(-c3nc(Nc4ccc(CC(=O)N5CCN(C(=O)c6cc(Cc7n[nH]c(=O)c8ccccc78)ccc6F)CC5)cc4)ncc3F)cc2n1C(C)C [Compound C9]	< 0.01	0.01 to 0.1
Cc1nc2c(F)cc(-c3nc(Nc4ccc(C(=O)Nc5cccc(Cc6n[nH]c(=O)c7ccccc67)c5)cc4)ncc3F)cc2n1C(C)C [Compound A2]	< 0.01	> 0.5
CN(C)C(=O)c1cc2cnc(N3CCN(C(=O)c4cc(Cc5n[nH]c(=O)c6ccccc56)ccc4F)CC3)nc2n1C1CCCC1 [Compound D9]	> 0.5	< 0.01
Cc1nc2c(F)cc(-c3nc(Nc4ccc(Cc5n[nH]c(=O)c6ccccc56)cc4)ncc3F)cc2n1C(C)C [Compound B1]	< 0.01	> 0.5
Cc1nc2c(F)cc(-c3nc(Nc4cccc(C(=O)Nc5cccc(Cc6n[nH]c(=O)c7ccccc67)c5)c4)ncc3F)cc2n1C(C)C [Compound A5]	0.01 to 0.1	> 0.5
CN(C)C(=O)c1cc2cnc(Nc3ccc(NC(=O)CNC(=O)c4cc(Cc5n[nH]c(=O)c6ccccc56)ccc4F)cc3)nc2n1C1CCCC1 [Compound D14]	< 0.01	0.01 to 0.1
Cc1nc2c(F)cc(-c3nc(Nc4ccc(C(=O)N5CCN(C(=O)c6cc(Cc7n[nH]c(=O)c8ccccc78)ccc6F)CC5)cc4)ncc3F)cc2n1C(C)C [Compound C7]	< 0.01	0.01 to 0.1
Cc1nc2c(F)cc(-c3nc(Nc4ccc(C(=O)N5CCN(c6cccc(NC(=O)c7cc(Cc8n[nH]c(=O)c9ccccc89)ccc7F)c6)CC5)cc4)ncc3F)cc2n1C(C)C [Compound C3]	0.01 to 0.1	> 0.5
CN(C)C(=O)c1cc2cnc(NNC(=O)c3cc(Cc4n[nH]c(=O)c5ccccc45)ccc3F)nc2n1C1CCCC1 [Compound D1]	> 0.5	0.1 to 0.5
Cc1nc2c(F)cc(-c3nc(Nc4ccc(CN5CCN(C(=O)c6cc(Cc7n[nH]c(=O)c8ccccc78)ccc6F)CC5)cc4)ncc3F)cc2n1C(C)C [Compound C6]	< 0.01	0.01 to 0.1
Cc1nc2c(F)cc(-c3nc(Nc4ccc(NC(=O)c5cc(Cc6n[nH]c(=O)c7ccccc67)ccc5F)cc4)ncc3F)cc2n1C(C)C [Compound C1]	0.01 to 0.1	0.1 to 0.5
Cc1nc2c(F)cc(-c3nc(Nc4ccc(NC(=O)CCC(=O)Nc5cccc(Cc6n[nH]c(=O)c7ccccc67)c5)cc4)ncc3F)cc2n1C(C)C [Compound A4]	< 0.01	0.1 to 0.5
Cc1nc2c(F)cc(-c3nc(Nc4cccc(Cc5n[nH]c(=O)c6ccccc56)c4)ncc3F)cc2n1C(C)C [Compound A1]	< 0.01	0.1 to 0.5
Cc1nc2c(F)cc(-c3nc(Nc4cccc(C(=O)N5CCN(C(=O)c6cc(Cc7n[nH]c(=O)c8ccccc78)ccc6F)CC5)c4)ncc3F)cc2n1C(C)C [Compound C8]	0.01 to 0.1	0.01 to 0.1
Cc1nc2c(F)cc(-c3nc(Nc4ccc(C(=O)N5CCN(c6ccc(NC(=O)c7cc(Cc8n[nH]c(=O)c9ccccc89)ccc7F)cc6)CC5)cc4)ncc3F)cc2n1C(C)C [Compound C2]	0.01 to 0.1	> 0.5
Cc1nc2c(F)cc(-c3nc(Nc4ccc(N5CCN(C(=O)c6cc(Cc7n[nH]c(=O)c8ccccc78)ccc6F)CC5)cc4)ncc3F)cc2n1C(C)C [Compound C5]	< 0.01	< 0.01
CN(C)C(=O)c1cc2cnc(NCCCCCCNC(=O)c3cc(Cc4n[nH]c(=O)c5ccccc45)ccc3F)nc2n1C1CCCC1 [Compound D6]	> 0.5	< 0.01
